Where two headings read alike, the source gives them in different places.
Assays:
RSU1 (IPI00847168) = experiment: binding to VI16742 beads (HeLa lysate, SILAC MS); parameters: species or system human
From the text: (§1) In an alternative implementation of the chemical proteomic approach according to the invention, the broadly-selective pyrido[2,3-d]pyrimidine-based kinase inhibitor VI16742 has been used for affinity capture (FIG. 10a). […] As shown by gene ontology analysis, the corresponding molecular functions were highly over-represented in proteins specifically retained by the inhibitor resin (FIG. 10b).

LIMS1 (IPI00788612) = experiment: binding to VI16742 beads (HeLa lysate, SILAC MS); parameters: species or system human
From the text: as §1

ERCC2 (IPI00029728) = experiment: binding to VI16742 beads (HeLa lysate, SILAC MS); parameters: species or system human
From the text: as §1

CCNH (IPI00021305) = experiment: binding to VI16742 beads (HeLa lysate, SILAC MS); parameters: species or system human
From the text: as §1

WDR68 (IPI00006754) = experiment: binding to VI16742 beads (HeLa lysate, SILAC MS); parameters: species or system human
From the text: as §1

YES = YES (Homo sapiens, UniProt P07947); experiment: binding to immobilized V16742 (IVA1/IVA2, HeLa lysate, MS)
Chain of YES (P07947 whole entry): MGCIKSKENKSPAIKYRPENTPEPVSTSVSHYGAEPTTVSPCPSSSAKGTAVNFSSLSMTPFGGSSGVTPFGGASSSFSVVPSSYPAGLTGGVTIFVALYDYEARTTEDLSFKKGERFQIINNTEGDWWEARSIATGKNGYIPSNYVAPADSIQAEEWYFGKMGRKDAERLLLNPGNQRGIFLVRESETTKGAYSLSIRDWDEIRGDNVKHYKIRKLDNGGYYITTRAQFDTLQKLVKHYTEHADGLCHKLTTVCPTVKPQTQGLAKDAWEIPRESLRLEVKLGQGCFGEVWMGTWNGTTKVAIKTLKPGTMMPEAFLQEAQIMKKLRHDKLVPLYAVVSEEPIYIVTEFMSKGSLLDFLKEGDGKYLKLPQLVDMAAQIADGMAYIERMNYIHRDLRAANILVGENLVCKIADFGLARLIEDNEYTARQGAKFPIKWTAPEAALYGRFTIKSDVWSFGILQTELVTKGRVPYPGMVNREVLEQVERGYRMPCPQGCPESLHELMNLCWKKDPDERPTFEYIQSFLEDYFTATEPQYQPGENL

GSK3B = GSK3B (Homo sapiens, UniProt P49841); experiment: as above
Chain of GSK3B (P49841 whole entry): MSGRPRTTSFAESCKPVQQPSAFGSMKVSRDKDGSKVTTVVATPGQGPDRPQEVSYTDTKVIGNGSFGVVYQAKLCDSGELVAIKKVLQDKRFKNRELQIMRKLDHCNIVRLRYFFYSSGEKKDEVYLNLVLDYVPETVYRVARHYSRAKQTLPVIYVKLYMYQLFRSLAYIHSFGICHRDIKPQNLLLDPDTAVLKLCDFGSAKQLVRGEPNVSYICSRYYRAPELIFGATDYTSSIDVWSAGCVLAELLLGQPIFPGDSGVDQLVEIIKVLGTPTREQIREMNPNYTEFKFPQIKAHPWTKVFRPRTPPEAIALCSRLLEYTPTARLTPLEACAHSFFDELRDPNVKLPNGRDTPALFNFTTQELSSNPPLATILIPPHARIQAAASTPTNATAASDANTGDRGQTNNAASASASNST

BLMH = target: T1, BLMH (Homo sapiens, UniProt Q13867); experiment: gefitinib competition against AX14596 beads (HeLa lysate, SILAC MS); type: binding
T1 construct: endogenous in cells; host or cells: HeLa S3
T1 sequence (Q13867 1-455): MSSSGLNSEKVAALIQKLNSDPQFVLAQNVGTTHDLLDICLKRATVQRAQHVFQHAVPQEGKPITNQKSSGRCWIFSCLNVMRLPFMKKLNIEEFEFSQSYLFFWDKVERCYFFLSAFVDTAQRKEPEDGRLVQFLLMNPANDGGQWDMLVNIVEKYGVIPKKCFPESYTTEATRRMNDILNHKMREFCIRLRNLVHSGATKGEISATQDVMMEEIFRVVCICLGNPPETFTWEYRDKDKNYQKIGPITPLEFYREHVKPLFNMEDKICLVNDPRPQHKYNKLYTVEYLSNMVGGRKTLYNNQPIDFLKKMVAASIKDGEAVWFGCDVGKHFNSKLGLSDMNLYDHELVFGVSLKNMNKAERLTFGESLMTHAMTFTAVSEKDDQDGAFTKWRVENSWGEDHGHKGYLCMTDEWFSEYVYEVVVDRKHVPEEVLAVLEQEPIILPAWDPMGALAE

[1] = control beads vs first incubation

Q: Which results are given for `CC(C)n1c(=O)ccc2cnc(Nc3ccc(OCCN)cc3)nc21` [V16742]?
A: r (5 h/2.5 h INC. TIME) (RSU1 (IPI00847168); 5 h vs 2.5 h incubation time): 1.34; rAVERAGE (CTRL/1 INC) (RSU1 (IPI00847168); [1]): 0.07; Ki (RSU1 (IPI00847168); immobilized VI16742): 216 µM; rAVERAGE (2 INC/1 INC) (RSU1 (IPI00847168); second vs first incubation): 0.81; rAVERAGE (CTRL/1 INC) (LIMS1 (IPI00788612); [1]): 0.04; Ki (LIMS1 (IPI00788612); immobilized VI16742): 143 µM; rAVERAGE (2 INC/1 INC) (LIMS1 (IPI00788612); second vs first incubation): 0.73; rAVERAGE (CTRL/1 INC) (ERCC2 (IPI00029728); [1]): 0.17; Ki (ERCC2 (IPI00029728); immobilized VI16742): 118 µM; rAVERAGE (2 INC/1 INC) (ERCC2 (IPI00029728); second vs first incubation): 0.69; rAVERAGE (CTRL/1 INC) (CCNH (IPI00021305); [1]): 0.05; Ki (CCNH (IPI00021305); immobilized VI16742): 96.9 µM; rAVERAGE (2 INC/1 INC) (CCNH (IPI00021305); second vs first incubation): 0.65; r (3 MG/1 MG LYSATE) (WDR68 (IPI00006754); 3 mg vs 1 mg lysate): 2.58; r (5 h/2.5 h INC. TIME) (WDR68 (IPI00006754); 5 h vs 2.5 h incubation time): 1.31; rAVERAGE (CTRL/1 INC) (WDR68 (IPI00006754); [1]): 0.17; Ki (WDR68 (IPI00006754); immobilized VI16742): 249 µM; rAVERAGE (2 INC/1 INC) (WDR68 (IPI00006754); second vs first incubation): 0.83

Q: What does the source list for `CC(C)n1c(=O)ccc2cnc(Nc3ccc(OCCN)cc3)nc21` [compound 16742]?
A: Percent bound at 1.87 μM 16742 conc (YES; EXPERIMENT 1): 4.07%; Percent bound at 8.74 μM 16742 conc (YES; EXPERIMENT 1): 25.17%; Percent bound at 52 μM 16742 conc (YES; EXPERIMENT 1): 62.69%; Kd (YES; EXPERIMENT 1, read-out: Kd): 29.3 µM; Percent bound at 1.87 μM 16742 conc (YES; EXPERIMENT 2): 3.61%; Percent bound at 8.74 μM 16742 conc (YES; EXPERIMENT 2): 15.31%; Percent bound at 52 μM 16742 conc (YES; EXPERIMENT 2): 54.74%; Kd (YES; EXPERIMENT 2, read-out: Kd): 44.3 µM; Kd (YES; read-out: Kd Avg): 36.8 µM; Percent bound at 1.87 μM 16742 conc (GSK3B; EXPERIMENT 1): 12.33%; Percent bound at 8.74 μM 16742 conc (GSK3B; EXPERIMENT 1): 51.81%; Percent bound at 52 μM 16742 conc (GSK3B; EXPERIMENT 1): 91.30%; Kd (GSK3B; EXPERIMENT 1, read-out: Kd): 8.44 µM; Percent bound at 1.87 μM 16742 conc (GSK3B; EXPERIMENT 2): 8.04%; Percent bound at 8.74 μM 16742 conc (GSK3B; EXPERIMENT 2): 41.97%; Percent bound at 52 μM 16742 conc (GSK3B; EXPERIMENT 2): 88.20%; Kd (GSK3B; EXPERIMENT 2, read-out: Kd): 11.6 µM; Kd (GSK3B; read-out: Kd Avg): 10 µM

Q: Which results are given for `COc1cc2ncnc(Nc3ccc(F)c(Cl)c3)c2cc1OCCCN1CCOCC1` [gefitinib]?
A: IC50 (BLMH): 0.223 µM; rAVERAGE (10 nM/0 nM Gef.) (BLMH): 0.82; rAVERAGE (100 nM/0 nM Gef.) (BLMH): 0.53; rAVERAGE (1000 nM/0 nM Gef.) (BLMH): 0.43; rAVERAGE (10000 nM/0 nM Gef.) (BLMH): 0.11; Ki (BLMH; read-out: Ki (Gef)): 0.0779 µM
